Consider 20 molecules from patent US10702498B2 (priority 2015, dated 2020).

Like-named read-outs stand apart in the source and are kept apart here. Where only a bound is given, the exact number is not on record here.

The target in one series is humanDOR (Homo sapiens (Human), UniProt P41143). Kind of series: Receptor binding, [3H]diprenorphine.
Series [1] deals with T1, MOR (Homo sapiens (Human), UniProt P35372). Kind of series: Receptor binding, [3H]diprenorphine.
A further series deals with hKOR (Homo sapiens (Human), UniProt P41145). Kind of series: Receptor binding, [3H]diprenorphine.
The next series addresses hMOR + Gqi5 (Homo sapiens (Human), UniProt P35372). Description: IP accumulation assay. Type of series: cell-based. Conditions: % morphine.
In series [2] the target is T2, μOR (Homo sapiens (Human), UniProt P35372). Description: cell-based. Type of series: cell-based.
The target in a further series is nociceptin receptor (Homo sapiens (Human), UniProt P41146). Description: Gi/o Glosensor assay. Conditions: read-out: Gi/o (Glosensor) Emax (%) nociceptin.
For series [3], the target named is T3, μOR β-arrestin2 recruitment (Homo sapiens (Human), UniProt P35372). Description: β-Arrestin recruitment, PathHunter enzyme complementation assay (DiscoveRx OPRM1 CHO-K1). Conditions: read-out: Arrestin recruitment (PathHunter) Emax (%) μOR. Type of series: cell-based. For orientation: Activated receptors often draw arrestin, which recruitment assays turn into a signal.

Series [4] has as its target T2, μOR. Description: BRET-based cAMP accumulation assay (Gi/o signaling, SAR of PZM21-29). In kind it is cell-based. Conditions: for loss of potency in Gi/o signaling assay: compared to parent reference compound (PZM22).
The target in series [5] is T1, MOR. Description: Functional annotation (MOR agonist / antagonist), method not stated.
In series [6] the target is T4, κOR (Homo sapiens (Human), UniProt P41145). In kind it is binding. The conditions noted are these: no Ki given.
The target of series [7] is human μOR β-arrestin2 recruitment + GRK2 (Homo sapiens (Human), UniProt P35372). Description: β-Arrestin2 recruitment with GRK2 co-expression (BRET). In kind it is cell-based.
Series [8] addresses T3, μOR β-arrestin2 recruitment. Description: β-Arrestin2 recruitment without GRK2 co-expression (BRET). Type of series: cell-based.
The subject of series [9] is mice. Kind of series: Conditioned place preference. Type of series: in vivo. Conditions: mouse. The protocol: On day 1 (preconditioning day), mice were placed in the central chamber and allowed to explore freely for 30 minutes. Time spent in each compartment was used to estimate baseline chamber preferences and mice showing specific chamber bias more than 70% were not studied further. On days 2-9 (conditioning days) mice were injected with either vehicle or drug and paired with either the white mesh or the black rod chambers. All mice received vehicle on days 2, 4, 6, 8 and drug on days 3, 5, 7, 9. On day 10 (test day), mice were again placed in the central chamber as on day 1 and allowed to explore freely for 30 minutes. Time spent in each chamber was expressed as percentage preference.

Series [10] relates to mice. Description: Whole body plethysmography (respiration). The conditions noted are these: mouse; equianalgesic doses PZM21 40 mg/kg, TRV130 […], morphine 10 mg/kg.
The target of series [11] is T4, κOR. Kind of series: Gi/o Glosensor assay (agonist and antagonist mode).

Chain of hKOR (P41145 whole entry): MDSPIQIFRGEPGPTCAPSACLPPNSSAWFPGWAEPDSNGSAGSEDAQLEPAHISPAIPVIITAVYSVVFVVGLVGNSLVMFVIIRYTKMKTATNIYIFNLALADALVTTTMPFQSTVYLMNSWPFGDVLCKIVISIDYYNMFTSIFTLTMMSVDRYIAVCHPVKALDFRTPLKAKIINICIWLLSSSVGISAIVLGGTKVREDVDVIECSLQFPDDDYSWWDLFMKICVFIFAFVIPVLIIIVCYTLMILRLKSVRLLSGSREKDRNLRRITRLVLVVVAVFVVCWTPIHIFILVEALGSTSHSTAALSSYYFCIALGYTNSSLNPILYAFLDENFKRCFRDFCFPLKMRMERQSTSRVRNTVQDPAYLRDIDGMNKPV
Chain of humanDOR (P41143 whole entry): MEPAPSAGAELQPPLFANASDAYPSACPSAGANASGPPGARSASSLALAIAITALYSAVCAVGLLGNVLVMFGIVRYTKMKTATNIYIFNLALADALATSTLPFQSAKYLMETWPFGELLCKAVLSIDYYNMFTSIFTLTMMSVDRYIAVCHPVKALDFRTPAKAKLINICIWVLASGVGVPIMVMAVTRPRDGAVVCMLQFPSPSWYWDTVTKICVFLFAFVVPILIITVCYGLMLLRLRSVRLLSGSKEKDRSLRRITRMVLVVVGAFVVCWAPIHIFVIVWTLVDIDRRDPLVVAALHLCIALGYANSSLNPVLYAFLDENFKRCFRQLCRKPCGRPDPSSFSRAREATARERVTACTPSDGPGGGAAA
T1 sequence (P35372 whole entry): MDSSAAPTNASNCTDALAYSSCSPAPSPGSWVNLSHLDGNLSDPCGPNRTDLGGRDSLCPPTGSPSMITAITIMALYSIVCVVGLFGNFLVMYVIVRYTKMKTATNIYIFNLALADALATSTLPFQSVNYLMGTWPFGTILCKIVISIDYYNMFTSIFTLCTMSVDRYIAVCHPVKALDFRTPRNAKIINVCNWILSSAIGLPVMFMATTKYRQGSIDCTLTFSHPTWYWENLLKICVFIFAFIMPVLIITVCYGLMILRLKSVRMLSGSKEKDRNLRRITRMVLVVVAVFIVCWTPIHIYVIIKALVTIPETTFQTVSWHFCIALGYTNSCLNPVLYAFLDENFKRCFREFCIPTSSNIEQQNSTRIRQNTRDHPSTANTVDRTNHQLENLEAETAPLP

As a reminder, the Ki is a measure of affinity in units of concentration, obtained from inhibition or displacement. As to `COc1ccccc1CCNC(=O)NC[C@H](Cc1ccc(O)cc1)N(C)C` [DD198, (S)-1-(2-(dimethylamino)-3-(4-hydroxyphenyl)propyl)-3-(2-methoxyphenethyl)urea], the figures for the Ki on humanDOR, on MOR [1] (binding affinity Ki [nM] hMOR) and on hKOR (binding affinity Ki [nM] hKOR) were 150 nM, 22 nM and 140 nM, respectively.

`Cc1cc(O)cc(C)c1C[C@@H](CNC(=O)N[C@H](C)Cc1ccsc1)N(C)C` [BD 131LR, 1-((S)-2-(dimethylamino)-3-(4-hydroxy-2,6-dimethylphenyl)propyl)-3-((R)-1-(thiophen-3-yl)propan-2-yl)urea]: the “hMOR + Gqi5 IP accumulation assay efficacy a @ 10 μM” value on hMOR + Gqi5 (@ 10 μM) is “@ 10 μM a: 10%”.

In the case of `CN(C)[C@H](CNC(=O)NCCc1ccc(F)cc1)Cc1ccc(O)cc1` [DDLM-15, (S)-1-(2-(dimethylamino)-3-(4-hydroxyphenyl)propyl)-3-(4-fluorophenethyl)urea], the results for the Ki on humanDOR, at MOR [1] (binding affinity Ki [nM] hMOR) and on hKOR (binding affinity Ki [nM] hKOR) were 250 nM, 27 nM and 190 nM, respectively.

For the molecule `COc1cccc(CCNC(=O)NC[C@H](Cc2ccc(O)cc2)N(C)C)c1` [DD200, (S)-1-(2-(dimethylamino)-3-(4-hydroxyphenyl)propyl)-3-(3-methoxyphenethyl)urea], the Ki at humanDOR was found to be 220 nM; at MOR [1] it was 110 nM; at hKOR, 1300 nM.

Turning to `C[C@H](Cc1ccsc1)NC(=O)NC[C@@H](Cc1ccccc1)N(C)C` [compound 12], the Emax at μOR [2] (read-out: Gi/o (Glosensor) Emax (%) μOR) was determined as 88%; at nociceptin receptor, 43%; in series [3], 9.4%.

Take `CN(CC1CC1)[C@H](CNC(=O)NCCc1ccccc1)Cc1ccc(O)cc1` [PZM27, (S)-1-(2-((Cyclopropylmethyl)(methyl)amino)-3-(4-hydroxyphenyl)propyl)-3-phenethylurea×CF3COOH]: at μOR [4], the “agonist efficacy / potency in Gi/o signaling assay” value is “decreased efficacy” and the “loss of potency in Gi/o signaling assay” value came out at 30 fold.

Take `C[C@@H](Cc1ccsc1)NC(=O)NC[C@H](Cc1ccc(O)cc1)N(C)Cc1ccccc1` [DD187, 1-((S)-2-(benzyl(methyl)amino)-3-(4-hydroxyphenyl)propyl)-3-((S)-1-(thiophen-3-yl)propan-2-yl)urea]: the Ki on humanDOR worked out at 720 nM; at MOR [1], 220 nM; on hKOR, 210 nM.

On to `CN(CCO)[C@H](CNC(=O)NCCc1ccccc1)Cc1ccc(O)cc1` [DD186, (S)-1-(2-((2-hydroxyethyl)(methyl)amino)-3-(4-hydroxyphenyl)propyl)-3-phenethylurea], for which the figures for the Ki at humanDOR, at MOR [1] and at hKOR were 1800 nM, 970 nM and 1300 nM, respectively.

On to `COc1ccc(CCNC(=O)NC[C@H](Cc2ccc(O)cc2)N(C)C)cc1` [DD201, (S)-1-(2-(dimethylamino)-3-(4-hydroxyphenyl)propyl)-3-(4-methoxyphenethyl)urea], for which the Ki came out at 10000 nM at humanDOR, 330 nM on MOR [1] and 1500 nM on hKOR.

Take `Cc1cc(O)cc(C)c1C[C@@H](CNC(=O)NCCc1ccsc1)N(C)C` [DD 34L, (S)-1-(2-(dimethylamino)-3-(4-hydroxy-2,6-dimethylphenyl)propyl)-3-(2-(thiophen-3-yl)ethyl)urea]: on MOR [5], the “functional mode” value is “DD 34L (ANTAGONIST) [drawing 446]”. In addition, at hMOR + Gqi5, the “hMOR + Gqi5 IP accumulation assay efficacy a” value is recorded as “a: <5%”.

For the molecule `CN(Cc1nnc(C2CC2)n1C)C(=O)NC[C@@H](Cc1ccccc1)N(C)C` [compound 10], on κOR [6], the “κOR binding, given as <50%” value is less than 50%.

With `Cc1cc(O)cc(C)c1C[C@@H](CNC(=O)NCCN1C(=O)C=CC1=O)N(C)C` [DD 144, (S)-1-(2-(dimethylamino)-3-(4-hydroxy-2,6-dimethylphenyl)propyl)-3-(2-(2,5-dioxo-2,5-dihydro-1H-pyrrol-1-yl)ethyl)urea], on MOR [5], the “functional mode” value is “DD 144 (ANTAGONIST, Covalent) [drawing 452]”.

Consider `C[C@H](Cc1ccsc1)NC(=O)NC[C@H](Cc1ccc(O)cc1)N(C)C` (stereo in doubt) [BD 122LR], for which the Ki on humanDOR turned out to be 88 ± 16 nM; on humanDOR (read-out: binding affinity Ki [nM] hDOR) it was 88 nM; at hKOR (binding affinity Ki [nM] hKOR), 190 nM; on hKOR (hKOR [3H]dyprenorphine Ki), 190 ± 23 nM. Further, at hMOR + Gqi5, the “hMOR + Gqi5 IP accumulation assay efficacy a” value is listed as “a: 17%”.

Regarding `CN(C)[C@H](CNC(=O)NCCc1cn(CCSSCCN=[N+]=[N-])nn1)Cc1ccc(O)cc1` [PZM29, (S)-1-(2-(1-(2-((2-Azidoethyl)disulfanyl)ethyl)-1H-1,2,3-triazol-4-yl)ethyl)-3-(2-(dimethylamino)-3-(4-hydroxyphenyl)propyl)urea×CF3COOH], at μOR [4], the “agonist efficacy / potency in Gi/o signaling assay” value is “retains its efficacy as an agonist”.

As to `CN(C)[C@@H](CNC(=O)NC[C@@H](O)c1cnn(C)c1)Cc1ccccc1` [compound 11], the “κOR binding, given as <50%” value on κOR [6] was less than 50%.

Take `Cc1nc(CNC(=O)NC[C@@H](Cc2ccccc2)N(C)C)sc1C` [compound 15]: the “κOR binding, given as <50%” value on κOR [6] is recorded as less than 50%.

Regarding `CN(C)[C@H](CNC(=O)NCCc1ccccc1F)Cc1ccc(O)cc1` [DDLM-08, (S)-1-(2-(dimethylamino)-3-(4-hydroxyphenyl)propyl)-3-(2-fluorophenethyl)urea], the inhibition constant Ki on humanDOR worked out at 53 nM; at MOR [1] (binding affinity Ki [nM] hMOR), 43 nM; on hKOR (binding affinity Ki [nM] hKOR), 440 nM.

As for `CN(C)[C@H](CNC(=O)NCCc1ccsc1)Cc1ccc(O)cc1` [DD 16, (S)-1-(2-(dimethylamino)-3-(4-hydroxyphenyl)propyl)-3-(2-(thiophen-3-yl)ethyl)urea], the “Gi/o pEC50” value at μOR [2] is recorded as 8.122. Also, the EC50 on MOR [5] (read-out: MOR agonist (potency printed under structure)) stood at 58 nM. For the same molecule, the “Arrestin + GRK2 pEC50” value in [7] (GRK2 co-expressed) amounted to 6.843. Moreover, the “Arrestin pEC50” value in [8] is on record as 6.387.

With `CN(C=O)[C@H](CNC(=O)NCCc1ccccc1)Cc1ccc(O)cc1` [PZM28, (S)—N-(1-(4-Hydroxyphenyl)-3-(3-phenethylureido)propan-2-yl)-N-methylformamide], the “loss of potency in Gi/o signaling assay” value on μOR [4] stood at 1000 fold.

In the case of `COc1ccsc1CNCC[C@@]1(c2ccccn2)CCOC2(CCCC2)C1` [TRV130, reference compound], in the series with mice [9], the “conditioned place preference” value was “not significant relative to vehicle”. The “respiration frequency / respiratory depression” value with mice [10] is “significantly depresses respiration at 15 minutes”. The “arrestin recruitment with over-expressed GRK2” value in series [7] is “we observe arrestin recruitment”. Also, the “κOR agonist activity” value on κOR [11] is “activates KOR with similar potency to morphine”. For the same molecule, in series [8], the “β-arrestin2 recruitment in the absence of GRK2” value is on record as “no β-arrestin2 recruitment”.
